Results as given in the supplement of paper PMC10307832.

Assays:
Test in all cases: relative viability (nuclei count vs DMSO), 5 days (fraction); higher = more cells survive
VX-11e + Pemetrexed = compound: CC1=CN=C(N=C1C2=CNC(=C2)C(=O)N[C@H](CO)C3=CC(=CC=C3)Cl)NC4=C(C=C(C=C4)F)Cl [VX-11e] + Nc1nc2[nH]cc(CCc3ccc(C(=O)N[C@@H](CCC(=O)O)C(=O)O)cc3)c2c(=O)[nH]1 [Pemetrexed] (partner 0.2 µM)
In short: (§1)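 Relative viability equals treated-well nuclei counts divided by vehicle-well nuclei counts. Counts came from 4× images of lung cancer cell lines grown in 1536-well plates for 5 days after pin-tool dosing on the day after seeding. Dosing used one drug alone or a fixed anchor-drug dose plus five library-drug doses (not always all listed) in √10 steps, and values are medians of duplicate plates.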

VX-11e + Crizotinib = compound: CC1=CN=C(N=C1C2=CNC(=C2)C(=O)N[C@H](CO)C3=CC(=CC=C3)Cl)NC4=C(C=C(C=C4)F)Cl [VX-11e] + C[C@@H](Oc1cc(-c2cnn(C3CCNCC3)c2)cnc1N)c1c(Cl)ccc(F)c1Cl [Crizotinib] (partner 1 µM)
In short: as §1

VX-11e + Dasatinib = compound: CC1=CN=C(N=C1C2=CNC(=C2)C(=O)N[C@H](CO)C3=CC(=CC=C3)Cl)NC4=C(C=C(C=C4)F)Cl [VX-11e] + Cc1nc(Nc2ncc(C(=O)Nc3c(C)cccc3Cl)s2)cc(N2CCN(CCO)CC2)n1 [Dasatinib] (partner 0.075 µM)
In short: as §1

VX-11e + Lapatinib = compound: CC1=CN=C(N=C1C2=CNC(=C2)C(=O)N[C@H](CO)C3=CC(=CC=C3)Cl)NC4=C(C=C(C=C4)F)Cl [VX-11e] + CS(=O)(=O)CCNCc1ccc(-c2ccc3ncnc(Nc4ccc(OCc5cccc(F)c5)c(Cl)c4)c3c2)o1 [Lapatinib] (partner 2 µM)
In short: as §1

Cell Line	relative viability (VX-11e + Pemetrexed; first compound 0.04 µM)	relative viability (VX-11e + Pemetrexed; first compound 0.1265 µM)	relative viability (VX-11e + Pemetrexed; first compound 0.4 µM)	relative viability (VX-11e + Pemetrexed; first compound 1.265 µM)	relative viability (VX-11e + Pemetrexed; first compound 4 µM)	relative viability (VX-11e + Crizotinib; first compound 0.04 µM)	relative viability (VX-11e + Crizotinib; first compound 0.1265 µM)	relative viability (VX-11e + Crizotinib; first compound 0.4 µM)	relative viability (VX-11e + Crizotinib; first compound 1.265 µM)	relative viability (VX-11e + Crizotinib; first compound 4 µM)	relative viability (VX-11e + Dasatinib; first compound 0.04 µM)	relative viability (VX-11e + Dasatinib; first compound 0.1265 µM)	relative viability (VX-11e + Dasatinib; first compound 0.4 µM)	relative viability (VX-11e + Dasatinib; first compound 1.265 µM)	relative viability (VX-11e + Dasatinib; first compound 4 µM)	relative viability (VX-11e + Lapatinib; first compound 0.04 µM)	relative viability (VX-11e + Lapatinib; first compound 0.1265 µM)	relative viability (VX-11e + Lapatinib; first compound 0.4 µM)	relative viability (VX-11e + Lapatinib; first compound 1.265 µM)	relative viability (VX-11e + Lapatinib; first compound 4 µM)
NCI-H2347	0.412	0.442	0.423	0.389	0.368	0.677	0.831	0.605	0.517	0.406	0.221	0.314	0.126	0.232	0.197	1.05	0.878	0.809	0.809	0.453
EKVX	0.314	0.444	0.33	0.383	0.225	1.07	0.944	0.879	0.764	0.617	0.687	0.482	0.401	0.489	0.247	0.205	0.184	0.189	0.108	0.144
HCC-78	0.938	0.859	0.884	0.858	0.919	0.351	0.307	0.353	0.285	0.285	–	0.412	0.411	0.382	0.44	1.37	0.884	0.944	0.384	0.526
NCI-H647	0.187	0.198	0.177	0.137	0.123	1.1	0.916	1.01	0.608	0.523	0.23	0.215	0.0848	0.123	0.0992	0.863	0.902	0.546	0.476	0.353
NCI-H2126	0.554	0.621	0.399	0.567	0.517	–	1.03	0.987	1.02	0.901	0.52	0.635	–	0.597	0.401	–	0.752	0.752	0.742	0.599
NCI-H520	0.752	0.738	0.716	0.65	0.478	0.773	0.748	0.741	0.914	0.59	0.175	0.188	0.199	0.338	0.293	0.951	0.791	0.687	0.87	0.572
EMC-BAC-2	0.473	0.423	0.631	0.511	0.549	0.808	0.708	0.739	0.618	0.671	0.303	0.291	0.437	0.509	0.407	0.736	0.807	0.945	0.837	0.732
NCI-H1755	0.449	0.326	0.409	0.424	0.396	0.905	0.849	0.845	0.873	0.491	0.444	0.392	0.413	0.398	0.298	1.05	0.97	0.833	0.93	0.771
NCI-H661	0.814	0.912	0.901	0.88	0.756	–	0.974	1	1.16	0.934	0.863	0.799	0.784	0.684	0.352	0.527	0.5	0.446	0.386	0.314
H3255	0.478	0.565	0.523	0.513	0.47	0.898	0.716	0.608	0.877	0.887	0.37	0.38	0.538	0.281	0.347	0.245	0.222	0.286	0.281	0.232
CAL-12T	1.28	1.36	1.19	1.02	0.438	0.697	0.632	0.633	0.543	0.394	0.466	0.34	0.249	0.243	0.111	–	–	0.544	0.565	0.348
NCI-H1915	0.484	0.509	0.477	0.381	0.388	0.945	0.82	0.919	0.788	0.548	0.288	0.291	0.25	0.267	0.217	0.981	0.92	0.984	0.976	0.808
NCI-H2023	0.224	0.241	0.225	0.145	0.157	0.633	0.606	0.519	0.427	0.338	0.647	0.508	0.502	0.439	0.234	0.72	0.874	0.1	0.387	0.303
NCI-H2170	0.222	0.254	0.232	0.247	0.254	1.18	1.04	1.23	1.03	1.1	0.339	0.664	0.461	0.341	0.445	0.229	0.259	0.231	0.243	0.252
NCI-H1650	0.323	0.335	0.334	0.377	0.305	1.06	0.87	0.751	0.912	0.874	0.304	0.385	–	0.312	0.187	0.76	0.626	0.204	0.289	0.444
NCI-H1944	0.602	0.77	0.382	0.505	0.374	1.17	1.02	0.942	0.905	0.583	0.203	0.207	–	0.2	0.154	0.748	0.733	0.621	0.647	0.586
NCI-H1355	0.904	0.99	0.99	1.01	0.526	1.1	0.993	1.09	0.875	0.479	0.523	0.669	0.334	0.43	0.321	0.613	0.948	0.879	0.728	0.48
HOP-62	0.348	0.264	0.277	0.192	0.22	0.887	0.863	0.978	0.76	0.428	0.685	0.652	0.663	0.457	0.242	1.14	0.979	0.776	0.27	0.526
NCI-H2405	1.09	0.957	0.678	0.989	0.501	0.892	0.805	0.821	0.766	0.505	0.204	0.186	0.15	0.151	0.128	1.07	1.01	–	1.05	0.349
SK-MES-1	0.903	0.921	0.818	0.553	0.42	1.09	0.966	1.05	0.964	0.643	0.403	0.332	0.393	0.188	0.185	0.452	0.414	0.47	0.436	0.282
EPLC-272H	0.334	0.39	0.408	0.305	0.253	0.711	0.877	0.85	0.676	0.627	0.328	0.269	–	0.334	0.2	0.844	0.577	0.714	0.739	0.48
NCI-H3122	0.202	0.205	0.162	0.171	0.152	0.302	0.288	0.275	0.35	0.226	0.7	0.637	–	0.476	0.224	1.07	0.98	0.855	0.892	0.626
NCI-H1993	–	0.537	0.457	0.58	0.521	–	0.804	–	0.752	0.647	0.442	0.54	0.523	1.46	0.504	–	0.818	–	0.73	0.727
LK-2	0.171	0.269	0.145	0.183	0.16	–	0.275	0.394	–	0.243	0.25	0.344	0.244	0.155	0.257	–	0.832	0.812	0.522	0.439
HCC-366	0.246	0.178	–	0.15	0.138	0.605	0.476	–	0.561	0.184	0.736	0.612	–	0.434	0.241	1	0.971	–	0.879	0.759
COR-L 105	1.11	0.905	0.921	0.93	0.527	0.779	0.705	0.547	0.369	0.292	0.316	0.344	0.33	0.198	0.229	0.354	0.324	0.396	0.355	0.381
NCI-H1792	–	0.719	–	0.343	0.0593	0.956	0.954	0.915	0.982	0.52	0.894	0.679	0.572	0.729	0.326	0.889	0.91	1	0.86	0.755
NCI-H1563	0.766	0.798	0.915	0.631	0.655	0.861	0.799	0.969	0.91	0.642	0.417	0.47	0.506	0.411	0.449	0.938	0.795	0.529	0.854	0.864
